Laboratory results published in publication PMC3503517 (Chembiochem : a European journal of chemical biology, 2011).
Like-named read-outs stand apart in the source and are kept apart here.

How the values were obtained:
human DCTPP1 [1] = target: T1, human DCTPP1 (Homo sapiens, UniProt Q9H773); format: biochemical
T1 sequence (Q9H773 1-170): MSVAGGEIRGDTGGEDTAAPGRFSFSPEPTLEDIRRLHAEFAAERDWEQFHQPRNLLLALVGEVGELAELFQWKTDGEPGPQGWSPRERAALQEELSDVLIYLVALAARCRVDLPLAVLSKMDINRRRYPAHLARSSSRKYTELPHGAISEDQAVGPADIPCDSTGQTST

HeLa cells [2] = assay: BrdC/BrdCTP incorporation into DNA detected with anti-BrdU antibody; format: cell-based, human; details: one-hour treatment
HeLa cells [3] = assay: Cytotoxicity; format: cell-based; details: Homo sapiens, 48 h, read-out: IC50 (cell number)
human DCTPP1 [4] = target: T1, human DCTPP1; details: ITC, 25°C, value ± SD
native gel or EMSA + SEC = target: the molecule itself; assay: native gel or EMSA + SEC

Molecule: Nc1ccn([C@@H]2O[C@H](COP(=O)(O)OP(=O)(O)OP(=O)(O)O)[C@@H](O)C2(F)F)c(=O)n1 [gemcitabine triphosphate]
- activity as a DCTPP1 substrate (human DCTPP1 [1]; kinetic assays, data not shown): did not show activity as a DCTPP1 substrate

Molecule: Nc1nc(=O)n([C@H]2C[C@H](O)[C@@H](COP(=O)(O)OP(=O)(O)OP(=O)(O)O)O2)cc1Br [BrdCTP]
- BrdU incorporation (fraction of anti-BrdU reactive cells) (HeLa cells [2]): 30–43 % of cells

Molecule: CC(C)[C@]12O[C@H]1[C@@H]1O[C@]13[C@]1(O[C@H]1C[C@H]1C4=C(CC[C@@]13C)C(=O)OC4)[C@@H]2O [compound 1, triptolide]
- IC50 (HeLa cells [3]): 7 to 10 nM
- ΔH (human DCTPP1 [4]): -19.98 ± 1.70 kcal/mol
- ΔH (human DCTPP1 [4]; listed as triptolide): –19.98 ± 1.70 kcal/mol
- n (binding stoichiometry) (human DCTPP1 [4]; per DCTPP1 monomer): 0.601 ± 0.075

Molecule: Nc1nc(=O)n([C@H]2C[C@H](O)[C@@H](CO)O2)cc1Br [BrdC]
- BrdU incorporation (fraction of anti-BrdU reactive cells) (HeLa cells [2]): 30–43 % of cells

Molecule: Nc1nc(=O)n([C@H]2C[C@H](O)[C@@H](COP(=O)(O)OP(=O)(O)OP(=O)(O)O)O2)cc1I [5-I-dCTP]
- Km (human DCTPP1 [1]; as substrate of DCTPP1): 239 µM
- kcat (human DCTPP1 [1]; as substrate of DCTPP1): 0.000864 s⁻¹

B1: recombinant human dCTP pyrophosphatase 1 (DCTPP1), GST tag cleaved off (enzyme, UniProt Q9H773 1-170, looked up)
chain: MSVAGGEIRGDTGGEDTAAPGRFSFSPEPTLEDIRRLHAEFAAERDWEQFHQPRNLLLALVGEVGELAELFQWKTDGEPGPQGWSPRERAALQEELSDVLIYLVALAARCRVDLPLAVLSKMDINRRRYPAHLARSSSRKYTELPHGAISEDQAVGPADIPCDSTGQTST
- stoichiometry N (native gel or EMSA + SEC): 2
